These results are taken from US12492188B2, “1H-benzo[D]imidazole derivatives as TLR9 inhibitors for the treatment of fibrosis” (BRISTOL-MYERS SQUIBB COMPANY, priority 2020, dated 2025).

Like-named read-outs stand apart in the source and are kept apart here.

What is called IC50 is the concentration at which inhibition is half-maximal.

What all share (type): cell-based
In assay [1] the target is T1, human TLR9 (Homo sapiens, UniProt Q9NR96).
T1 construct: host or cells: HEK-Blue cells (HEK293-derived reporter line)
T1 sequence (Q9NR96 26-1032): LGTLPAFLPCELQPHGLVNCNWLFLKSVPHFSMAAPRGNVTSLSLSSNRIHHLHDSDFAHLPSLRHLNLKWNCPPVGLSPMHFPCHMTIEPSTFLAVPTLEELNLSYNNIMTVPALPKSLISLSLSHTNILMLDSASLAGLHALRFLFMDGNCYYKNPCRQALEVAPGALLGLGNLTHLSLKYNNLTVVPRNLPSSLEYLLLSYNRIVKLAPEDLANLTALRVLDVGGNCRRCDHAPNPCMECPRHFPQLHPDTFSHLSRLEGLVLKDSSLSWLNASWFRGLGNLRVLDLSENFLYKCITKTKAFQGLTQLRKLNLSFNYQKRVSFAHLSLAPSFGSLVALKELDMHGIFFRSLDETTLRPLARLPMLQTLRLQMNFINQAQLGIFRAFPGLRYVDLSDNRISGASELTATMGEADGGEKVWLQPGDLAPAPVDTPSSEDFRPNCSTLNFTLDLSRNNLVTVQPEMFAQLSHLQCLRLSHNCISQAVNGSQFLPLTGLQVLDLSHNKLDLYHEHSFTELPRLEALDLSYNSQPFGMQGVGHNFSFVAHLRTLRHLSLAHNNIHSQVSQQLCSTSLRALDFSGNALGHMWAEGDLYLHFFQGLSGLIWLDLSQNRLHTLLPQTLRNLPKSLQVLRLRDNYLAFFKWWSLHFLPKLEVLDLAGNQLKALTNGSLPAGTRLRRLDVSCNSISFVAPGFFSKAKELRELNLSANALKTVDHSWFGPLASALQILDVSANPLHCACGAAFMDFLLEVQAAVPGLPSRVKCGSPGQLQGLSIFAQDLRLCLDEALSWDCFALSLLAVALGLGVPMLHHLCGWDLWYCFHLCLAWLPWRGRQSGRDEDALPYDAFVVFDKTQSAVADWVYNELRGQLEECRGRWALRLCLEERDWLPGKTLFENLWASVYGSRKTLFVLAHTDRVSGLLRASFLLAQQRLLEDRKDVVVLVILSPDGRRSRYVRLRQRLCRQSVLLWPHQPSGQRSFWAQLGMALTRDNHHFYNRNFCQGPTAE
Description: TLR9 inhibition reporter assay (HEK-Blue cells, secreted embryonic alkaline phosphatase reporter). An outline of the steps: (§1)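 HEK-Blue cells overexpressing the respective receptor, with an NF-κB/AP-1-driven SEAP reporter, were pre-treated with compound (0.05 nM–50 μM) for 30 min at room temperature. Stimulation used gardiquimod 7.5 μM (TLR7), R848 15.9 μM (TLR8) or ODN2006 5 nM (TLR9); SEAP was read after 22 h at 37 °C as percent inhibition.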

Assay [2] deals with T2, human TLR7 (Homo sapiens, UniProt Q9NYK1).
T2 construct: host or cells: HEK-Blue cells (HEK293-derived reporter line)
T2 sequence (Q9NYK1 27-1049): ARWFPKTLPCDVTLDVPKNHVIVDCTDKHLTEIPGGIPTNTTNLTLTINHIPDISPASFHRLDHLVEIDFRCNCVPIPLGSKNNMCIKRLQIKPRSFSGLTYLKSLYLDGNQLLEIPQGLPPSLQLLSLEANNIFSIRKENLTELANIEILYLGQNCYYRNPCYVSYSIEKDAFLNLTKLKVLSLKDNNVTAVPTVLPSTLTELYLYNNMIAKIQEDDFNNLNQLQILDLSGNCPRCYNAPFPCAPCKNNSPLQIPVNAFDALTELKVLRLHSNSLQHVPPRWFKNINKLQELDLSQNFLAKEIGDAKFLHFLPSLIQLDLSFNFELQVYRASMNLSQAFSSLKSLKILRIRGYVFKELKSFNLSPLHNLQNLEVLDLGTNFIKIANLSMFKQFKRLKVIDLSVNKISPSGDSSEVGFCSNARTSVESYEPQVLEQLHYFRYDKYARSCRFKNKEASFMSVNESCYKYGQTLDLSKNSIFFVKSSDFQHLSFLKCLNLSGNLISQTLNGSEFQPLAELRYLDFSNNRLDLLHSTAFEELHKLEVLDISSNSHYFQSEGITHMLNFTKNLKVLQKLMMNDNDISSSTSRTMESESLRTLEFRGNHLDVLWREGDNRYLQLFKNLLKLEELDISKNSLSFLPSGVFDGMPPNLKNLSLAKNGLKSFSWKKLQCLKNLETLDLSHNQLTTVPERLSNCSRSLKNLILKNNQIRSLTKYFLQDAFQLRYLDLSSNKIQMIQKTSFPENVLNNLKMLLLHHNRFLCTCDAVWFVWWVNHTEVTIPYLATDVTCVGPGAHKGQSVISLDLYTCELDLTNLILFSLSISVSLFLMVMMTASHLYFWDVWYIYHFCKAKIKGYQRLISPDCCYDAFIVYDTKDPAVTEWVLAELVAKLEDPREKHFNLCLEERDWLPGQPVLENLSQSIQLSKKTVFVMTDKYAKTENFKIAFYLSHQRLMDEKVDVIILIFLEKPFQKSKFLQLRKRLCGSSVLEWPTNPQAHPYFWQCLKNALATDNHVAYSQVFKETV
Nature of the assay: TLR7 inhibition reporter assay (HEK-Blue cells, secreted embryonic alkaline phosphatase reporter). The following applies: HEK-Blue cells overexpressing human TLR7, stimulated with gardiquimod 7.5 μM; read-out: TLR 7 IC50. The method in brief:
as §1

For assay [3], the target named is T3, human TLR8 (Homo sapiens, UniProt Q9NR97).
T3 construct: host or cells: HEK-Blue cells (HEK293-derived reporter line)
T3 sequence (Q9NR97 27-1041): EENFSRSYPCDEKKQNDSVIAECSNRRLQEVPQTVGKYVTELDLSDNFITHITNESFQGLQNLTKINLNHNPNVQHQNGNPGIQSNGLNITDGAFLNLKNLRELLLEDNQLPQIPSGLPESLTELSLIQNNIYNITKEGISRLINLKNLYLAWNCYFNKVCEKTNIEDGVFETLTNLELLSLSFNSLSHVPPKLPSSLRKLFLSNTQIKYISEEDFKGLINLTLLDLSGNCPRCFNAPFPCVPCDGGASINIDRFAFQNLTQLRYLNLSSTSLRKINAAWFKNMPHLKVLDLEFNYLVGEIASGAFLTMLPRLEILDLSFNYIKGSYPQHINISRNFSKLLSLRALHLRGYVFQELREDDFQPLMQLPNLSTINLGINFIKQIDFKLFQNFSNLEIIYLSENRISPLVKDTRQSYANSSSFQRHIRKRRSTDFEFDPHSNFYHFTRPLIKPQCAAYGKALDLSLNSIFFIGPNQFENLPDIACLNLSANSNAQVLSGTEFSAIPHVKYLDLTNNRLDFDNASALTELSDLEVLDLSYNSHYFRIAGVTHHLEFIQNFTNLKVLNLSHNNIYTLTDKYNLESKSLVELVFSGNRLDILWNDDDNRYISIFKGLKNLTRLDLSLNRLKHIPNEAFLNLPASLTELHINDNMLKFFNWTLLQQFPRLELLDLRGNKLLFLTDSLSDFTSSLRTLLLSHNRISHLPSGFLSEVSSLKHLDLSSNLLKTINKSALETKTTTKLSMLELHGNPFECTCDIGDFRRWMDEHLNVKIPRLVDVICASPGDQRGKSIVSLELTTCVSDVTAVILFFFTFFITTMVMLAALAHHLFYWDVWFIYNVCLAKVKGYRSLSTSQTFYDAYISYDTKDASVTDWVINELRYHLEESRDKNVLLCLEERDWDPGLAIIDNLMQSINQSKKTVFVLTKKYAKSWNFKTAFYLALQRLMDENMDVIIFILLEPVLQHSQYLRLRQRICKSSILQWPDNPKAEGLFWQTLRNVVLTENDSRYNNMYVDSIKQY
Nature of the assay: TLR8 inhibition reporter assay (HEK-Blue cells, secreted embryonic alkaline phosphatase reporter). The conditions noted are these: HEK-Blue cells overexpressing human TLR8, stimulated with R848 15.9 μM; read-out: TLR 8 IC50. The method in brief:
as §1
Background: A reporter such as luciferase makes a cellular process visible.

[4] abbreviates: HEK-Blue cells overexpressing human TLR9, stimulated with ODN2006 5 nM, read-out: TLR 9 IC50.

For the compound `CC(C)CN1C2CCC1CC(N1CCC(c3cc(F)c4c(c3)nc(-c3ccc(S(C)(=O)=O)cc3)n4C)CC1)C2` (stereo not drawn) [Example 209, 7-fluoro-5-(1-(8-isobutyl-8-azabicyclo[3.2.1]octan-3-yl)piperidin-4-yl)-1-methyl-2-(4-(methylsulfonyl)phenyl)-1H-benzo[d]imidazole], the IC50 in assay [1] worked out at 81 nM; in assay [1] (setting [4]) it was 81 nM; in assay [2] it was 16700 nM; in assay [3], 16700 nM.

As for `CC(C)CN1C2CCC1CC(N1CCC(c3cc(F)c4c(c3)nc(-c3ccc(S(C)(=O)=O)cc3)n4C)CC1)C2` (stereo not drawn) [Example 210, 7-fluoro-5-(1-(8-isobutyl-8-azabicyclo[3.2.1]octan-3-yl)piperidin-4-yl)-1-methyl-2-(4-(methylsulfonyl)phenyl)-1H-benzo[d]imidazole], the IC50 in assay [1] is 120 nM; in assay [2] it was more than 50000 nM; in assay [3] it was more than 50000 nM.

Take `Cn1c(-c2ccc(S(C)(=O)=O)cc2)nc2cc(C3CCN(C4CC5CCC(C4)N5C4CCOCC4)CC3)cc(F)c21` (stereo not drawn) [Example 211, 7-fluoro-1-methyl-2-(4-(methylsulfonyl)phenyl)-5-(1-(8-(tetrahydro-2H-pyran-4-yl)-8-azabicyclo[3.2.1]octan-3-yl)piperidin-4-yl)-1H-benzo[d]imidazole]: the IC50 in assay [1] was 270 nM; in assay [1] (setting [4]), 165 nM; in assay [2] it was more than 50000 nM; in assay [3], more than 50000 nM.

In the case of `Cn1c(-c2ccc(S(C)(=O)=O)cc2)nc2cc(C3CCN(C4CC5CCC(C4)N5C4CCOCC4)CC3)cc(F)c21` (stereo not drawn) [Example 212, 7-fluoro-1-methyl-2-(4-(methylsulfonyl)phenyl)-5-(1-(8-(tetrahydro-2H-pyran-4-yl)-8-azabicyclo[3.2.1]octan-3-yl)piperidin-4-yl)-1H-benzo[d]imidazole], the IC50 in assay [1] was 460 nM; in assay [1] (setting [4]) it was 456 nM; in assay [2], more than 50000 nM; in assay [3], more than 50000 nM.

In the case of `Cn1c(-c2ccc(S(C)(=O)=O)cc2)nc2cc(C3CCN(C4CC5CCC(C4)N5CC4CC4)CC3)cc(F)c21` (stereo not drawn) [Example 217, 5-(1-(8-(cyclopropylmethyl)-8-azabicyclo[3.2.1]octan-3-yl)piperidin-4-yl)-7-fluoro-1-methyl-2-(4-(methylsulfonyl)phenyl)-1H-benzo[d]imidazole], the IC50 in assay [1] is 130 nM; in assay [1] (setting [4]), 125 nM; in assay [2], 12900 nM; in assay [3], more than 50000 nM.

Take `Cn1c(-c2ccc(S(C)(=O)=O)cc2)nc2cc(C3CCN(C4CC5CCC(C4)N5CC4CC4)CC3)cc(F)c21` (stereo not drawn) [Example 218, 5-(1-(8-(cyclopropylmethyl)-8-azabicyclo[3.2.1]octan-3-yl)piperidin-4-yl)-7-fluoro-1-methyl-2-(4-(methylsulfonyl)phenyl)-1H-benzo[d]imidazole]: the IC50 in assay [1] turned out to be 140 nM; in assay [1] (setting [4]), 140 nM; in assay [2], 5600 nM; in assay [3] it was 48700 nM.

In the case of `CC(C)CN1CCC(N2CCC(c3cc4c(cc3F)nc(-c3ccc(S(C)(=O)=O)cc3)n4C)CC2)CC1` [Example 221, 5-fluoro-6-(1′-isobutyl-[1,4′-bipiperidin]-4-yl)-1-methyl-2-(4-(methylsulfonyl)phenyl)-1H-benzo[d]imidazole], the half-maximal inhibitory concentration (IC50) was 350 nM in assay [1], 354 nM in assay [1] (setting [4]), 7800 nM in assay [2] and more than 50000 nM in assay [3].

With `Cn1c(-c2ccc(S(C)(=O)=O)cc2)nc2cc(F)c(C3CCN(C4CCN(C5CC5)CC4)CC3)cc21` [Example 222, 6-(1′-cyclopropyl-[1,4′-bipiperidin]-4-yl)-5-fluoro-1-methyl-2-(4-(methylsulfonyl)phenyl)-1H-benzo[d]imidazole], the half-maximal inhibitory concentration (IC50) was 130 nM in assay [1], 133 nM in assay [1] (setting [4]), 35600 nM in assay [2] and more than 50000 nM in assay [3].

On to `Cn1c(-c2ccc(S(C)(=O)=O)cc2)nc2cc(F)c(C3CCN(C4CCN(C5CCC5)CC4)CC3)cc21` [Example 223, 6-(1′-cyclobutyl-[1,4′-bipiperidin]-4-yl)-5-fluoro-1-methyl-2-(4-(methylsulfonyl)phenyl)-1H-benzo[d]imidazole], for which the IC50 is 290 nM in assay [1], 290 nM in assay [1] (setting [4]), more than 50000 nM in assay [2] and more than 50000 nM in assay [3].

With `Cn1c(-c2ccc(S(C)(=O)=O)cc2)nc2cc(F)c(C3CCN(C4CCN(CC5CC5)CC4)CC3)cc21` [Example 224, 6-(1′-(cyclopropylmethyl)-[1,4′-bipiperidin]-4-yl)-5-fluoro-1-methyl-2-(4-(methylsulfonyl)phenyl)-1H-benzo[d]imidazole], the half-maximal inhibitory concentration (IC50) is 190 nM in assay [1], 192 nM in assay [1] (setting [4]), 25700 nM in assay [2] and more than 50000 nM in assay [3].
